# Measurements: patent US5939424A, “Compounds for treating disorders of lipid metabolism and their preparation” (Hoechst Aktiengesellschaft, priority 1996, dated 1999)
# Counter-ions that a name gives are not always drawn.
# Tested on: LDL receptor mRNA
# Test: LDL receptor mRNA levels in rat livers (Northern blot, β-actin as internal standard)
# Format: in vivo
# Conditions: rat liver, 30 mg/kg, 6 hours after administration; untreated control = 100%
# Procedure: To test the ability of the inventive compounds to lower plasma lipid levels, the stimulation of LDL receptor mRNA production was chosen as a surrogate. Thus, in rat livers, within a few hours the LDL receptor mRNA levels are increased by the compounds of the formula I (Table I). The stimulation is in the range from 170 to 350% of the controls (control=100%).
# The preparation of the mRNA was carried out according to the method of Chomczynski, P. and Sacchi, N., Anal. Biochem. 162, 156-159 (1987). In organs (such as, for example, liver), the deep-frozen tissue was homogenized on dry ice beforehand in a mortar and the mRNA was further enriched by means of Oligo dT according to standard methods (cf. Sambrook, J., Fritsch, E. F. and Maniatis, T., Molecular Cloning, second Edition, Cold Spring Harbor (1989); in this collection of methods, there are also descriptions of all further relevant molecular biology standard methods used here). Five to […] of the dissolved mRNA thus obtained were denatured according to standard methods and separated on 1% horizontal agarose gels. The mRNA was transferred to Hybond N membranes (Amersham) by means of capillary blot. The specific hybridization probe used was a partial LDL receptor cDNA clone and the internal standard a plasmid which contained a β-actin gene. Both plasmids were labeled by means of a random primer kit from Amersham up to a specific activity of 5×10^9 cpm/mg. Prehybridization, hybridization and washing of the filters were carried out by standard methods. The filters were then exposed at -70° C. on Cronex 4 films (Dupont) overnight up to 14 days in the presence of an intensifying screen and the hybridization signals were quantified using a commercial laser densitometer by means of the film-blackening intensity. The quotient of the intensity of the LDL receptor band and of the actin band was then determined as an internal standard to correct yield variations.
# Liver tissue was removed and shock-frozen in liquid nitrogen. The mRNA was then isolated as described, and the relative LDL receptor mRNA levels were determined by means of the Northern blot technique. The mRNA levels of untreated control animals were set at 100%, and the stimulation of the LDL receptor mRNA in percent of the control was calculated.
row,SMILES,LDL receptor mRNA (stimulation in percent of the control)
1,"CC1(C)CN(c2ncc(C(=O)Nc3cccc(OC(F)(F)F)c3)c(N)n2)C(=O)N1 [Example 2, 4-Amino-2-(4,4-dimethylimidazolidin-2-on-1-yl)-5-(3-trifluoromethoxyphenylpyrimidine)carboxamide]",250%
2,"CCN(C(=O)c1cnc(N2CC(C)(C)NC2=O)nc1N)c1cccc(OC(F)(F)F)c1 [Example 3, 4-Amino-2-(4,4-dimethyl-2-oxo-1-imidazolidin-2-on-1-yl)-5-[N-ethyl-N-(3-trifluoromethoxy)phenyl]pyrimidinecarboxamide hydrochloride]",235%
3,"CC1(C)CN(c2ncc(C(=O)N(CC(F)(F)F)c3cccc(OC(F)(F)F)c3)c(N)n2)C(=O)N1 [Example 4, 4-Amino-2-(4,4-dimethylimidazolidin-2-on-1-yl)-5-[N-(2,2,2-trifluoroethyl)-N-(3-trifluoromethoxyphenyl)]-pyrimidinecarboxamide]",230%
4,"CC1(C)CN(c2ncc(C(=O)Nc3ccc4c(c3)OC(F)(F)O4)c(N)n2)C(=O)N1 [Example 14, 4-Amino-2-(4,4-dimethylimidazolidin-2-on-1-yl)-5-[N-(2,2-difluorobenzo-1,3-dioxol-5-yl)]pyrimidinecarboxamide-hydrochloride]",250%
5,"CC1(C)CN(c2ncc(C(=O)Nc3ccc4c(c3)OC(F)(F)C(F)(F)O4)c(N)n2)C(=O)N1 [Example 15, 4-Amino-2-(4,4-dimethylimidazolidin-2-on-1-yi)-5-[N-(2,2,3,3-tetrafluorobenzo-1,4-dioxan-6-yl)]-pyrimidinecarboxamide hydrochloride]",242%
6,"CC1(C)CN(c2ncc(C(=O)Nc3cccc(SC(F)(F)F)c3)c(N)n2)C(=O)N1 [Example 22, 4-Amino-2-(4,4-dimethylimidazolidin-2-on-1-yl)-5-[N-(3-trifluorothiomethyl-phenyl)]pyrimidinecarboxamide-hydrochloride]",235%
